Assay [1] relates to intravitreal leukocyte accumulation in EIU. The experiment in a line: Intravitreal leukocyte accumulation in Endotoxin-Induced-Uveitis. The following applies: 24 hours post LPS-injection; aprotinin 50,000KIU at 0, 8, 16 hours; EIU 343.6±11.7. The class given is in vivo, Lewis rats. The protocol:
(§1) EIU was induced in Lewis rats via footpad injection of 100 μl (1 mg/ml) lipopolysaccharide (LPS). Control animals received an equal volume of saline. The experiments were conducted 24 hours after LPS injection. At this time point, several experimental parameters were assessed.
(§2) To block AZ, animals received 5 ml of aprotinin (Trasylol®; 50,000KIU). The first injection was given at the same time as the footpad injection, followed by a second injection 8 hours later and a third injection 16 hours later. The control animals received and equal amounts of vehicle control. LPS was purchased in lyophilized form from Sigma (#L6511).
To assess leukocyte extravasations into the vitreal cavity during EIU, histological slides of the whole eyes of treated rats were generated and the number of leukocytes in the vitreous cavity of these sections was counted. To do so, whole eyes were placed in 4% paraformaldehyde for fixation. Gradual infiltration of graded alcohols was followed by xylene and finally by liquid paraffin. Paraffin submerged eyes were then cooled to harden. Six-micron sections were cut on a Leica microtome and placed on slides. Sections were stained with hematoxylin and eosin and coverslipped.

Assay [2] has as its system retinal vascular leakage in diabetic retinopathy. Briefly: Retinal vascular leakage in streptozotocin-induced diabetic retinopathy. It is filed as in vivo, Long-Evans rats. The following applies: two weeks after streptozotocin-induced diabetes; aprotinin 50,000 KIU, systemic. The protocol: After an overnight fast, Long-Evans rats (Charles River, Wilmington, Mass.), weighing 200-250 g, received single 60 mg/kg intraperitoneal injections of streptozotocin (Sigma, St. Louis, Mo.) in 10 mM citrate buffer (pH 4.5). Control nondiabetic animals received citrate buffer alone. Animals with blood glucose levels greater than 250 mg/dl 24 hours after the streptozotocin injections were considered diabetic. The rats were fed standard laboratory chow and allowed free access to water. Before each experiment, the diabetic state was reconfirmed to be 250 mg/dl or higher.
Asterisks indicate statistical significance.

The subject of assay [3] is VEGF-induced blood retinal barrier breakdown. Briefly: VEGF-induced blood retinal barrier breakdown (Evans Blue). The class given is in vivo, Brown Norway rats. As to the method:
This study employed Brown Norway rats, AZ (1 μg, 10 μg, 20 μg), PBS, aprotinin, VEGF164, and polyclonal anti-AZ antibody (1 μg). Briefly, Brown Norway rats received intravitreal injections of AZ (1 μg, 10 μg and 20 μg) in one eye and PBS in the contralateral eye. BRB breakdown was quantified using the Evans Blue (EB) technique at 1 hour, 3 hours, and 24 hours after intravitreal injection of AZ or PBS. To assess whether AZ induced retinal leukostasis, firm leukocyte adhesion was quantified at 3 hours and 24 hours post AZ injection (10 μg) using the ex vivo conconavalin leukostasis assay. To block AZ, rats were treated with a single intravenous injection of aprotinin (30,000KIU), prior to the intravitreal injections. To investigate whether AZ was involved in VEGF-induced BRB breakdown, rats received intravitreal injections of 50 ng recombinant mouse VEGF164 in one eye and PBS in the other eye and were treated intravenously with aprotinin (50,000KIU every eight hours) or polyclonal anti-AZ antibody (1 μg). BRB breakdown and retinal leukostasis were quantified 24 hours after VEGF injection.
Rats received intravitreous injections of 5 μl of sterile phosphate-buffered saline (PBS) containing 50 ng VEGF164 (R&D Systems, Minneapolis, Minn.) in one eye and 5 μl of sterile phosphate-buffered saline (PBS) in the contralateral eye. The retinas were analyzed for leakage 24 hours after VEGF injection.
In a second group, the rats were additionally treated intravenously with aprotinin (Trasylol®, Bayer Pharmaceuticals). 50,000KIU of aprotinin (5 ml of Trasylol®) was administered intravenously through the tail vein 1 hour before, as well as 8 hours and 16 hours after, the intravitreal injection of VEGF. The retinas were analyzed 24 hours after VEGF administration.
In a third group, rats were treated with intravitreous injections of 1 μg of goat anti-human azurocidin polyclonal antibody (5 μl of a 200 μg/ml antibody solution, Santa Cruz biotechnology) or control goat isotype IgG (R&D system) in the VEGF injected eye 6 hours after VEGF administration.
Retinal vascular permeability was quantified as previously described (Qaum et al. (2002) supra, Xu et al. (2001) INVEST. OPHTHALMOL. VIS. SCI. 42; 789-94). After the animals were deeply anesthetized, Evans blue dye (Sigma) dissolved in normal saline (30 mg/ml) was injected through the tail vein over 10 seconds at a dosage of 45 mg/kg. Blood samples were obtained from the left ventricle, just before perfusion at 2 hours, to obtain the time-average Evans blue dye plasma concentration. These blood samples were centrifuged at 12,000 rpm for 15 minutes and diluted to 1/10,000th of their initial concentration in formamide (Sigma). The background-subtracted absorbance was determined by measuring each sample at 620 nm (the absorbance maximum for Evans blue dye in formamide) and 740 nm (the absorbance minimum) with a spectrophotometer. The concentration of dye in the plasma was calculated from a standard curve of Evans blue dye in formamide. After the dye had circulated for 2 hours, the chest cavity was opened, and the rats were perfused through the left ventricle with 1% paraformaldehyde in citrate buffer (0.05 M, pH 3.5) at a physiological pressure of 120 mm Hg. The retinas were then carefully dissected under an operating microscope. After measurement of the retinal weight, Evans blue dye was extracted by incubating each retina in 0.180 ml of formamide for 18 hours at 70° C. The extract was ultracentrifuged at a speed of 14,000 rpm for 60 minutes at 25° C. Sixty microliters of the supernatant was used for spectrophotometric measurement at 620 nm and 740 nm. The background-subtracted absorbance was determined by measuring each sample at 620 nm (the absorbance maximum for Evans blue dye in formamide) and 740 nm (the absorbance minimum). The concentration of dye in the extracts was calculated from a standard curve of Evans blue dye in formamide. […]

Assay [4] relates to retinal leukostasis in EIU. The experiment in a line: Retinal leukostasis in Endotoxin-Induced-Uveitis (ConA staining). The class given is in vivo, Lewis rats. The following applies: 24 hours post EIU induction; aprotinin 50,000KIU at 0, 8, 16 hours; EIU 106.6±6.5, normal 17±1.2; n=6. As to the method:
as §1, §2
Under deep anesthesia, a rat's chest cavity was opened, and its left ventricle was cannulated to allow perfusion (Ishida (2003) supra). The rat's right atrium was opened to achieve outflow. […] The eyes were enucleated, and the retinas were dissected and flatmounted in a water-based fluorescence anti-fading medium (Fluoromount; Southern Biotechnology, Birmingham, Ala.) and imaged by fluorescence microscopy (Leica, FITC filter). […] Leukocytes in arteries, veins, and capillaries of each retinal tissue were counted, and the total number of adherent leukocytes per retina was calculated. […]

As to aprotinin, the “number of leukocytes found intravitreally” value in assay [1] worked out at 119.2±8.4. In addition, the “vascular leakage (normalized BRB leakage)” value in assay [2] was “comparable to that of normal animals”. Moreover, the “BRB breakdown as percentage of the value in control eyes” value in assay [3] (24 hours after intravitreal 50 ng VEGF) is recorded as 110%±21. Besides, in assay [3] (24 hours after intravitreal 50 ng VEGF, PBS eye 9.6±1.4 (VEGF alone), 5.4±1.4 (with aprotinin)), the “Evans Blue retinal leakage in VEGF-injected eye” value is given as 6.2±1.5 μl plasma/g retina/h. The “fold increase in retinal vascular leakage compared to the PBS injected eye” value in assay [3] (24 hours after intravitreal 50 ng VEGF, aprotinin i.v. 50,000KIU every eight hours, antibody 1 μg intravitreal 6 hours after VEGF) came to 1.1±0.21 fold. Moreover, in assay [3] (24 hours after intravitreal 50 ng VEGF, aprotinin i.v., antibody intravitreal 6 hours after VEGF), the “suppression of VEGF-induced blood retinal barrier breakdown” value was 95%. Besides, the “basal levels of retinal Evans Blue leakage” value in assay [3] (PBS-injected eye, i.v. aprotinin) was “did not reduce the basal levels of retinal Evans Blue leakage”. For the same substance, the “retinal leukostasis (firmly adhering leukocytes per retina)” value in assay [4] came to 32.4±2.9 cells.

Values taken from patent US20070248646A1, “Use of azurocidin inhibitors in prevention and treatment of ocular vascular leakage” (priority 2006, published 2007).
